The assay has as its system human peripheral blood mononuclear cells (PBMC). The assay is described as follows: Interferon-inducing activity in human peripheral blood mononuclear cells (PBMC), IFN-α ELISA.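 Further: IFN-α in pg/ml with a 1.25 pg/ml detection limit.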 It counts as cell-based. The settings on record: 24 h. How it is done: Peripheral bloods were sampled from 5 healthy volunteers using a syringe containing heparin, and peripheral blood mononuclear cells (PBMC) were prepared by density gradient centrifugation utilizing the Lymphoprep™ (NYCOMED PHARMA AS). PBMCs were washed twice in serum-free RPMI 1640 medium and adjusted at 1×10^6 cells/ml in RPMI 1640 medium comprising 10% fetal bovine serum. The product was cultured in the presence of a test compound dissolved in dimethyl sulfoxide (final concentration: 0.1%) in an incubator in the presence of 5% CO^2 at 37° C. for 24 hours. As a control, 0.1% dimethyl sulfoxide containing no test compound was used. The culture supernatant was aseptically collected by filtration. Thereafter, the supernatant was cryopreserved at −20° C. or lower until it was subjected to the assay for IFN-inducing activity. Human IFN-α in the culture supernatant was quantified using a highly sensitive ELISA system (Amersham).
For orientation: An ELISA detects its analyte on a solid surface through an enzyme-linked reagent.

Molecules are shown by their SMILES.

We go through one compound from patent US7521454B2 (Dainippon Sumitomo Pharma Co., Ltd., priority 2001, dated 2009).

For the compound `CCCCNc1nc(N)c2nc(O)n(Cc3ccc(C)nc3)c2n1` [Example 27, 2-Butylamino-8-hydroxy-9-(6-methyl-3-pyridylmethyl)adenine], the “Interferon-inducing activity (human IFN-α in culture supernatant)” value is 6 ± 3 pg/mL (concentration 1 nM), 26 ± 22 pg/mL (concentration 3 nM), 56 ± 37 pg/mL (concentration 10 nM) and 59 ± 33 pg/mL (concentration 30 nM).
